The values that follow come from BindingDB's records for doi:10.1016/j.bmcl.2006.10.059 (Merck Research Laboratories, 2007).

This assay can be described thus: Inhibition of MCP1-stimulated chemotaxis in monocytes transfected with human CCR2.
The IC50 is the midpoint of a concentration-inhibition curve. Low readings indicate greater potency, high ones weaker potency. `CC(=O)Nc1nc(C(CCN2CCC3(C=Cc4ccccc43)[C@@H](C)C2)C(=O)NCc2cc(C(F)(F)F)cc(C(F)(F)F)c2)cs1` (stereo partly drawn) [N-{[3,5-bis(trifluoromethyl)phenyl]methyl}-2-(2-acetamido-1,3-thiazol-4-yl)-4-[(5'R)-5'-methylspiro[indene-1,4'-piperidine]-1'-yl]butanamide] showed an IC50 of 0.6 nM.

Compound `CNC(=O)Nc1nc([C@H](CCN2CCC(c3ccccc3)CC2)C(=O)NCc2cc(C(F)(F)F)cc(C(F)(F)F)c2)cs1` [(S)-1-(4-(1-(3,5-bis(trifluoromethyl)benzylamino)-1-oxo-4-(4-phenylpiperidin-1-yl)butan-2-yl)thiazol-2-yl)-3-methylurea] returned an IC50 of 1.8 nM.

Consider `CNC(=O)Nc1nc([C@@H](CCN2CCC(c3ccccc3)CC2)C(=O)NCc2cc(C(F)(F)F)cc(C(F)(F)F)c2)cs1` [(R)-1-(4-(1-(3,5-bis(trifluoromethyl)benzylamino)-1-oxo-4-(4-phenylpiperidin-1-yl)butan-2-yl)thiazol-2-yl)-3-methylurea], for which 87 nM corresponded to half-maximal inhibition (IC50).

In turn, `CC(=O)Nc1nc([C@@H](CCN2CCC3(C=Cc4ccccc43)CC2)C(=O)NCc2cc(C(F)(F)F)cc(C(F)(F)F)c2)cs1` [(2R)-N-{[3,5-bis(trifluoromethyl)phenyl]methyl}-2-(2-acetamido-1,3-thiazol-4-yl)-4-{spiro[indene-1,4'-piperidine]-1'-yl}butanamide] yielded an IC50 of 27 nM.

Turning to `CC(=O)Nc1nc(C(CCN2CCC3(C=Cc4ccccc43)CC2)C(=O)NCc2cc(C(F)(F)F)cc(C(F)(F)F)c2)cs1` (configuration not stated) [N-{[3,5-bis(trifluoromethyl)phenyl]methyl}-2-(2-acetamido-1,3-thiazol-4-yl)-4-{spiro[indene-1,4'-piperidine]-1'-yl}butanamide], the IC50 was 0.7 nM.

In the case of `CC(=O)Nc1nc([C@H](CCN2CCC3(C=Cc4ccccc43)CC2)C(=O)NCc2cc(C(F)(F)F)cc(C(F)(F)F)c2)cs1` [(2S)-N-{[3,5-bis(trifluoromethyl)phenyl]methyl}-2-(2-acetamido-1,3-thiazol-4-yl)-4-{spiro[indene-1,4'-piperidine]-1'-yl}butanamide], the IC50 amounted to 5.3 nM.

`CC(=O)Nc1nc([C@H](CCN2CCC(c3ccccc3)CC2)C(=O)NCc2cc(C(F)(F)F)cc(C(F)(F)F)c2)cs1` [(S)-N-(3,5-bis(trifluoromethyl)benzyl)-2-(2-acetamidothiazol-4-yl)-4-(4-phenylpiperidin-1-yl)butanamide] yielded an IC50 of 0.7 nM.
